Counter-ions that a name gives are not always drawn.
Assay: Self-assembly of CAD with DOPE (50:50) into vesicles, ethanol dilution or lipid film hydration
Type: physicochemical
Details: CAD:DOPE 50:50
Protocol: Preparation of CAD-DOPE nanoparticles. […] The lipids DOTAP (1,2-dioleoyl-3-trimethylammonium-propane) and DOPE (1,2-dioleoyl-sn-glycero-3-phosphoethanolamine) were purchased from Avanti Polar Lipids (Alabaster, USA).
For the ethanol dilution (ED) method, CADs (10 mg/ml) and DOPE (25 mg/ml) were separately dissolved in absolute ethanol. […] For the lipid film hydration method CAD (10 mg/ml) and DOPE (25 mg/ml) were dissolved in chloroform (50:50 mol ratio) and transferred to a brown glass vial, followed by chloroform evaporation under nitrogen flow. […] The classically used cationic DOTAP-DOPE liposomes (50:50 mol ratio) were likewise prepared via lipid film hydration, as previously reported in literature and diluted in HEPES buffer (pH 7.4, 20 mM) to obtain a final lipid concentration of 3.9 mM. Hydrodynamic diameter, polydispersity index (PDI) and zeta-potential of all formulations were determined via dynamic light scattering (DLS) (Zetasizer Nano, Malvern Instruments, Worcestershire, United Kingdom).

| vesicle formation with DOPE | SMILES |
| --- | --- |
| successful vesicle formation | CN(C)CCCN1c2ccccc2CCc2ccccc21 [Imipramine hydrochloride] |
| successful vesicle formation | CNCCCN1c2ccccc2CCc2ccccc21 [Desipramine hydrochloride] |
| successful vesicle formation | CN(C)CCC=C1c2ccccc2CCc2ccccc21 [Amitriptyline hydrochloride] |
| did not self-assemble with DOPE | NC1=NCC2c3ccccc3Cc3ccccc3N12 (stereo not drawn) [Epinastine] |
| did not self-assemble with DOPE | CN1CCC(=C2c3ccccc3CC(=O)c3sccc32)CC1 [Ketotifen] |

| SMILES | vesicle formation with DOPE |
| --- | --- |
| Clc1ccc2c(c1)CCc1cccnc1C2=C1CCNCC1 [Desloratadine] | successful vesicle formation |
